# Measured values taken from ChEMBL document CHEMBL1201862, “PubChem BioAssay data set” (2004).
#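 Where inhibition never reached the appropriate level, the endpoint shown equals the highest concentration tested. Otherwise, values were interpolated linearly from a five-concentration, 48-hour dose response in 96-well plates. Here, GI50 denotes the concentration required for 50% inhibition of growth.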 Calls of active or inactive are those of the source. Cut-off read from the data, not from the text of the source: active = GI50 up to about 1.1 µM and inactive = higher.
# Legend:
# Experiment in all cases: DTP human tumour cell line panel, 48 h
# [1] = test system: IGROV-1
# [2] = test system: OVCAR-3
# [3] = test system: Hs-578T
# [4] = test system: A498
# [5] = test system: MCF7
# [6] = test system: HCT-15
# [7] = test system: SK-MEL-2
# [8] = test system: SW-620
# [9] = test system: MDA-N
# [10] = test system: HCC 2998
# [11] = test system: Malme-3M
# [12] = test system: HCT-116
# [13] = test system: ACHN
# [14] = test system: OVCAR-8
# [15] = test system: 786-0
# [16] = test system: HT-29
# [17] = test system: CCRF-CEM
# [18] = test system: SNB-75
# [19] = test system: T47D
# [20] = test system: RXF 393
SMILES,GI50 [1],GI50 [2],GI50 [3],GI50 [4],GI50 [5],GI50 [6],GI50 [7],GI50 [8],GI50 [9],GI50 [10],GI50 [11],GI50 [12],GI50 [13],GI50 [14],GI50 [15],GI50 [16],GI50 [17],GI50 [18],GI50 [19],GI50 [20]
O=C(Cn1c2c(c3ccccc31)CCCC2)N1CCCC1,> 100 µM (inactive),83.9 µM (inactive),22.8 µM (inactive),65 µM (inactive),> 100 µM (inactive),80.7 µM,> 100 µM (inactive),> 100 µM (inactive),> 100 µM (inactive),> 100 µM (inactive),> 100 µM (inactive),63.1 µM (inactive),> 100 µM (inactive),> 100 µM (inactive),> 100 µM (inactive),> 100 µM (inactive),–,–,–,–
C[C@@]1(O)C2CC3CC1(c1ccccc1)CC(/C3=N/O)/C2=N\O (stereo not given in full),> 100 µM (inactive),> 100 µM (inactive),–,> 100 µM (inactive),–,> 100 µM,> 100 µM (inactive),> 100 µM (inactive),–,> 100 µM (inactive),> 100 µM (inactive),> 100 µM (inactive),> 100 µM (inactive),> 100 µM (inactive),> 100 µM (inactive),> 100 µM (inactive),> 100 µM (inactive),> 100 µM (inactive),> 100 µM (inactive),> 100 µM (inactive)
O=c1c2ccccc2c2c3c1cccc3c1cccc3c(=O)c4ccccc4c2c31,> 100 µM (inactive),> 100 µM (inactive),–,> 100 µM (inactive),–,> 100 µM,> 100 µM (inactive),> 100 µM (inactive),–,> 100 µM (inactive),> 100 µM (inactive),> 100 µM (inactive),> 100 µM (inactive),> 100 µM (inactive),> 100 µM (inactive),> 100 µM (inactive),> 100 µM (inactive),> 100 µM (inactive),–,> 100 µM (inactive)
CC(NC1=NCCO1)c1cccs1 (stereo not given),23.1 µM (inactive),–,17.8 µM (inactive),74 µM (inactive),22.7 µM (inactive),33.7 µM,–,36.5 µM (inactive),–,17.7 µM (inactive),21.4 µM (inactive),20 µM (inactive),74.6 µM (inactive),41 µM (inactive),17.1 µM (inactive),19.1 µM (inactive),20 µM (inactive),37.7 µM (inactive),36.4 µM (inactive),> 10 µM (inactive)
C1=NN2C(c3ccccc3)=NOC2C2C(c3ccccc3)=NOC12 (stereo not given),> 100 µM (inactive),> 100 µM (inactive),> 100 µM (inactive),–,> 100 µM (inactive),> 100 µM,–,–,> 100 µM (inactive),> 100 µM (inactive),> 100 µM (inactive),> 100 µM (inactive),98.6 µM (inactive),> 100 µM (inactive),> 100 µM (inactive),–,–,> 100 µM (inactive),–,> 100 µM (inactive)
Cc1ccc(C)c(NC(=O)C(=O)C(C2C(C)CC(=O)C2CC(=O)O)[N+](=O)[O-])c1 (stereo not given),> 100 µM (inactive),> 100 µM (inactive),–,> 100 µM (inactive),–,> 100 µM,> 100 µM (inactive),> 100 µM (inactive),–,> 100 µM (inactive),> 100 µM (inactive),> 100 µM (inactive),> 100 µM (inactive),–,> 100 µM (inactive),> 100 µM (inactive),> 100 µM (inactive),> 100 µM (inactive),–,> 100 µM (inactive)
NC(=O)CCC(NC(=O)Cc1ccccc1)C(=O)O.NC(CCC(=O)NC(=O)Cc1ccccc1)C(=O)O (stereo not given),> 8130 µM (inactive),> 8130 µM (inactive),–,> 8130 µM (inactive),–,–,> 8130 µM (inactive),> 8130 µM (inactive),–,> 8130 µM (inactive),> 8130 µM (inactive),> 8130 µM (inactive),–,> 8130 µM (inactive),> 8130 µM (inactive),> 8130 µM (inactive),> 8130 µM (inactive),1080 µM (inactive),–,> 8130 µM (inactive)
CC/C=C1\N=C(c2ccc(Cl)cc2)OC1=O,> 100 µM (inactive),> 100 µM (inactive),–,> 100 µM (inactive),–,> 100 µM,> 100 µM (inactive),> 100 µM (inactive),–,> 100 µM (inactive),> 100 µM (inactive),–,> 100 µM (inactive),> 100 µM (inactive),> 100 µM (inactive),> 100 µM (inactive),> 100 µM (inactive),> 100 µM (inactive),–,> 100 µM (inactive)
Cc1ccc(S(=O)(=O)N2CCC2c2ccccc2)cc1 (stereo not given),> 100 µM (inactive),81.5 µM (inactive),–,> 100 µM (inactive),–,> 100 µM,> 100 µM (inactive),> 100 µM (inactive),–,> 100 µM (inactive),> 100 µM (inactive),52.8 µM (inactive),> 100 µM (inactive),> 100 µM (inactive),> 100 µM (inactive),> 100 µM (inactive),80.4 µM (inactive),72.6 µM (inactive),–,84.5 µM (inactive)
